# Earlier results, collected in patent US20240009181A1, “METHOD FOR THE TREATMENT AND PROPHYLAXIS OF SUBSTANCE-RELATED AND/OR ADDICTIVE DISORDERS INCLUDING SUBSTANCE/MEDICATION-INDUCED DEPRESSIVE DISORDERS, BIPOLAR AND RELATED DISORDERS, AND ANXIETY DISORDERS AND COMPOSITIONS USEFUL FOR THE SAME” (priority 2022, published 2024).
# Experiments:
# [1] = in vivo
# opioid use disorder = conditions: vs. 23% given placebo
half-life [1],SMILES,"complete abstinence (opioid-free over 19 weeks of treatment), share of subjects (opioid use disorder)"
about 75 hours,O=C1CCc2ccc(OCCCCN3CCN(c4cccc(Cl)c4Cl)CC3)cc2N1 [aripiprazole],
about 91 hours,O=c1ccc2ccc(OCCCCN3CCN(c4cccc5sccc45)CC3)cc2[nH]1 [brexpiprazole],
,O=C1CC[C@@]2(O)[C@H]3Cc4ccc(O)c5c4[C@@]2(CCN3CC2CC2)[C@H]1O5 [naltrexone],36%
about 21 hours,CC1(C)O[C@@H]2[C@@H](CO[C@@]3(COS(N)(=O)=O)OC(C)(C)O[C@@H]23)O1 [topiramate],
